The record followed here is patent publication US10154992B2, “Compounds and methods for treating HIV infection” (THE REGENTS OF THE UNIVERSITY OF CALIFORNIA, priority 2016, dated 2018).

pIC50: −log10 of the molar value. Where two headings read alike, the source gives them in different places.

Holding throughout (type): cell-based
The nature of data set [1]: MTT cell viability in parallel with the U1 assay. Particulars: human, U1 cells, read-out: U1 TC50. The method, then: (§1) U1 activation assay. U1 cells obtained from the AIDS Research and Reference Reagent Program were maintained under standard culture conditions in RPMI 1640 supplemented with 10% fetal bovine serum (heat inactivated), 2 mM L-glutamine, 100U/mL penicillin and 100 μg/mL streptomycin. U1 cells contain an integrated copy of a phorbol ester inducible HIV-1 provirus and addition of phytohemagglutinin (PHA) to the cell culture was used to induce virus production. On the day of the assay, the U1 cells were activated with PHA and 250,000 cells were plated in 96-well plates. Test compounds were diluted in media and applied to the cells at final concentrations from 1 to 10,000 nM. Cultures were incubated for 3 days and supernatants harvested. Cell-free virus production was measured by p24 ELISA on culture supernatant. Compound toxicity was determined by MTT cell-viability assay in parallel assays.

For data set [2], the system named is HIV-1 provirus in U1 cells. Description: U1 activation (latency) assay, p24 ELISA. Particulars: Human immunodeficiency virus 1, read-out: U1 IC50. How it is done:
as §1

Data set [3] is described as follows: MTT cell viability run in parallel with the Tat-hybrid assay. To be noted: human, Tat-hybrid reporter cell lines (HeLa); for CC50 at 48 h: Table 5, read-out: Tat hybrid TC50; for EC50 at 48 h: Table 6, second 'EC50' entry of the cell, values D/E. How it is done:
(§2) Cells were counted and plated into white 384-well or 96-well cell-culture treated assay plates and compounds were added. After 48 hours, the cells were prepared for luminescence assays that were performed on a plate reader (Tecan Evolution or MD Analyst). The cytotoxicity of each compound was determined in parallel via MTT-based cell viability assays.
(§3) Tat hybrid reporter assay. […] Previously characterized thienopyridines and diaminoacridine were used as controls. Cells were counted and plated into white 384-well cell-culture treated assay plates and compounds were added. After 48 hours, the cells were prepared for lumincescence assays that were performed on a plate reader (Tecan Evolution or MD Analyst). The cytotoxicity of each compound was determined in parallel via MTT-based cell viability assays. […]

Data set [4] concerns Tat-hybrid reporter cell lines (HeLa). Described as above. To be noted: Table 6; at 50,000 nM. The method, then: as §2, §3
The nature of data set [5]: MTT cell viability in Jurkat replication assay. Particulars: human, Jurkat (E6-1) cells, pH 7.4; Table 5; read-out: Jurkat TC50. How it is done: (§4) Virus spreading assay. Jurkat (E6-1) cells (NIH AIDS Reagent Program) were cultured in RPMI media supplemented with 25 mM HEPES pH 7.4, 10% heat-inactivated fetal calf serum (Hyclone, Waltham Mass.), and 1% penicillin/streptomycin. 2.5×10^5 Jurkat cells were inoculated with 250 pg p24 in 250 μl media in a 96-well flat bottom polystyrene cell culture microplate. Input virus was removed after 18 hours via washing cells phosphate-buffered saline (PBS). Cells were resuspended in 250 μl of media containing compounds at the described concentrations. Cells were incubated at 37° C., 5% CO2 and supernatant samples were removed every 48 hours and replaced with fresh media containing the compounds. Viral replication was quantified using ELISA to quantify p24 viral capsid protein in the culture supernatant. Mouse monoclonal and rabbit polyclonal α-p24 antibodies used in the ELISA were obtained from the NIH AIDS Reagent Program. Toxicity was monitored using the MTT cell viability assay (Mosmann, T. (1983). J Immunol Methods 65, 55-63).

The test system of data set [6] is HIV-1 isolate NL4-3. Description: Virus spreading / replication assay in Jurkat cells, p24 ELISA. To be noted: Human immunodeficiency virus 1, NL43, Jurkat; Table 5; read-out: Jurkat replication IC50. How it is done:
as §4

Take `NC(=O)c1sc2cncc(N3CCCC(COc4ccccc4F)C3)c2c1N` (stereo not drawn): the CC50 at 3 days in data set [1] (Table 5) was under 40 µM. Besides, the pIC50 in data set [2] (Table 5) was under 6.30. Moreover, in data set [3], the CC50 at 48 h is under 40 µM.

Consider `CCc1c(C)nc2sc(C(N)=O)c(N)c2c1C`, for which the CC50 at 3 days in data set [1] (Table 6) is over 40 µM. Moreover, the negative-log IC50 (pIC50) in data set [2] (Table 6) is under 6.30. Further, the “Tat hybrid cell viability at 50,000 nM” value in data set [4] is listed as “Y (Y = 30-60%)”. This molecule also registered an EC50 at 48 h in data set [3] of over 40 µM.

In the case of `NC(=O)c1sc2nccc(Nc3ccccc3)c2c1N`, the CC50 at 3 days in data set [1] (Table 6) is over 40 µM. In addition, the pIC50 in data set [2] (Table 6) is 6.30 to 7.00. In data set [4], the “Tat hybrid cell viability at 50,000 nM” value is “Y (Y = 30-60%)”. In data set [3], this molecule came in with a 50% effective concentration (EC50) at 48 h of over 40 µM.

`COCc1cc(C)nc2sc(C(N)=O)c(N)c12`: in data set [1] (Table 6), the CC50 at 3 days was over 40 µM. In addition, in data set [2] (Table 6), the pIC50 is under 6.30. For the same molecule, the “Tat hybrid cell viability at 50,000 nM” value in data set [4] was “X (X = >60%)”. Besides, the EC50 at 48 h in data set [3] was over 40 µM.

In the case of `NC(=O)c1sc2nc3c(c(-c4ccco4)c2c1N)CCCC3`, in data set [1] (Table 6), the CC50 at 3 days is under 40 µM. The pIC50 in data set [2] (Table 6) is under 6.30. Moreover, the “Tat hybrid cell viability at 50,000 nM” value in data set [4] is “X (X = >60%)”. The same molecule displayed an EC50 at 48 h in data set [3] of over 40 µM.

On to `Cc1cc(C)c2c(N)c(C(N)=O)sc2n1`, for which the CC50 at 3 days in data set [1] (Table 6) is over 40 µM. Also, the pIC50 in data set [2] (Table 6) is under 6.30. The “Tat hybrid cell viability at 50,000 nM” value in data set [4] is reported as “Z (Z = <30%)”. The molecule also had an EC50 at 48 h in data set [3] of over 40 µM.

Take `COc1ccc(-c2cncc3sc(C(N)=O)cc23)cc1` [drawing 129]: the CC50 at 3 days in data set [1] (Table 5) is under 40 µM. Also, the pIC50 in data set [2] (Table 5) and in data set [6] was over 7.00 throughout. The CC50 at 48 h in data set [3] is under 40 µM. Further, the CC50 in data set [5] is under 40 µM.

As to `COc1ccc(-c2cncc3sc(C(N)=O)c(N)c23)cc1` [drawing 136], the CC50 at 3 days in data set [1] (Table 5) is over 40 µM. Moreover, in data set [2] (Table 5), the pIC50 is over 7.00. In addition, the CC50 at 48 h in data set [3] is under 40 µM.

As for `NC(=O)c1cc2c(-c3ccc4c(c3)OCO4)cncc2s1` [drawing 137], the CC50 at 3 days in data set [1] (Table 5) is under 40 µM. Moreover, in data set [2] (Table 5), the pIC50 was over 7.00. In data set [3], the CC50 at 48 h was under 40 µM.

As to `NC(=O)c1sc2cncc(N3CCC(Oc4ccccc4)CC3)c2c1N` [drawing 139], in data set [1] (Table 5), the CC50 at 3 days was under 40 µM. Moreover, in data set [2] (Table 5), the pIC50 is over 7.00. Moreover, the CC50 at 48 h in data set [3] is over 40 µM.

`CC(=O)N1CCN(c2cncc3sc(C(N)=O)c(N)c23)CC1` [drawing 144]: the CC50 at 3 days in data set [1] (Table 5) is over 40 µM. In addition, the pIC50 was 6.30 to 7.00 in data set [2] (Table 5) and under 6.30 in data set [6]. Further, the CC50 at 48 h in data set [3] was over 40 µM. Moreover, in data set [5], the CC50 is over 40 µM.

With `NC(=O)c1cc2c(-c3cccc(-c4ccccc4)c3)cncc2s1` [drawing 145], the CC50 at 3 days in data set [1] (Table 5) was under 40 µM. Also, the pIC50 in data set [2] (Table 5) was 6.30 to 7.00. In data set [3], the CC50 at 48 h was over 40 µM.

Regarding `NC(=O)c1sc2cncc(-c3ccc4c(c3)CCO4)c2c1N` [drawing 151], the CC50 at 3 days in data set [1] (Table 5) was over 40 µM. Moreover, in data set [2] (Table 5), the negative-log IC50 (pIC50) is over 7.00. Also, the CC50 at 48 h in data set [3] was under 40 µM.

Consider `CN(C)c1ccnc2sc(C(N)=O)c(N)c12` [drawing 152], for which the CC50 at 3 days in data set [1] (Table 5) was over 40 µM. Further, the pIC50 in data set [2] (Table 5) is under 6.30. For the same molecule, the CC50 at 48 h in data set [3] was over 40 µM.

For `NC(=O)c1sc2cncc(-c3ccc4c(c3)OCO4)c2c1N` [drawing 157], the CC50 at 3 days in data set [1] (Table 5) is over 40 µM. Also, the pIC50 in data set [2] (Table 5) was 6.30 to 7.00. Besides, the CC50 at 48 h in data set [3] was under 40 µM.

Turning to `NC(=O)c1sc2cncc(N3CCC(C(N)=O)CC3)c2c1N` [drawing 158], the CC50 at 3 days in data set [1] (Table 5) was over 40 µM. In addition, the pIC50 in data set [2] (Table 5) was 6.30 to 7.00. Besides, the CC50 at 48 h in data set [3] was under 40 µM.

As to `NC(=O)c1sc2cncc(N3CCC(F)(F)CC3)c2c1N` [drawing 159], the CC50 at 3 days in data set [1] (Table 5) was over 40 µM. Moreover, the pIC50 in data set [2] (Table 5) is 6.30 to 7.00. Also, in data set [3], the CC50 at 48 h was under 40 µM.

As to `NC(=O)c1sc2cncc(N3CCC4(CC3)OCCO4)c2c1N` [drawing 161], the CC50 at 3 days in data set [1] (Table 5) was over 40 µM. In addition, the pIC50 in data set [2] (Table 5) is 6.30 to 7.00. Moreover, the CC50 at 48 h in data set [3] is under 40 µM.

Take `N#Cc1ccccc1-c1cncc2sc(C(N)=O)cc12` [drawing 164]: in data set [1] (Table 5), the CC50 at 3 days was over 40 µM. Besides, the pIC50 in data set [2] (Table 5) was under 6.30. Moreover, the CC50 at 48 h in data set [3] is over 40 µM.

On to `Cc1noc(C2CCCN(c3cncc4sc(C(N)=O)c(N)c34)C2)n1` (stereo not drawn) [drawing 169], for which the CC50 at 3 days in data set [1] (Table 5) was over 40 µM. Also, the pIC50 in data set [2] (Table 5) is under 6.30. For the same molecule, in data set [3], the CC50 at 48 h was under 40 µM.
